Measurements as given in BindingDB's records for doi:10.1021/jm00051a003 (University of Washington, 1995).

Test: Tested for the binding affinity against the Delta opioid receptor in guinea pig brain using [3H]DPDPE

Question: Which IC50 does the source give for `Oc1ccc2c3c1OC1[C@@H](OCc4ccc5ccccc5c4)CCC4(O)C(C2)N(CC2CC2)CCC314` (stereo not given in full) here?
Answer: Its IC50 is 20 nM.

Question: Which IC50 does the source give for `Oc1ccc2c3c1OC1[C@H](OCc4ccc5ccccc5c4)CCC4(O)C(C2)N(CC2CC2)CCC314` (stereo not given in full) here?
Answer: Its IC50 is 25 nM.

Question: With `Oc1ccc2c3c1OC1[C@@H](OCc4cccc5ccccc45)CCC4(O)C(C2)N(CC2CC2)CCC314` (stereo not given in full) as the compound, how does the IC50 read?
Answer: Its IC50 is 6.6 nM.

Question: For `Oc1ccc2c3c1OC1[C@@H](OCc4ccc(-c5ccccc5)cc4)CCC4(O)C(C2)N(CC2CC2)CCC314` (stereo not given in full), which IC50 is on record?
Answer: The IC50 was 19 nM.

Question: Which IC50 does the source give for `Oc1ccc2c3c1OC1[C@@H](OCc4ccccc4)CCC4(O)C(C2)N(CC2CC2)CCC314` (stereo not given in full) here?
Answer: Its IC50 is 1.4 nM.

Question: For `Oc1ccc2c3c1OC1[C@H](OCc4cccc5ccccc45)CCC4(O)C(C2)N(CC2CC2)CCC314` (stereo not given in full), which IC50 is on record?
Answer: The IC50 was 5.5 nM.

Question: Which IC50 does the source give for `Oc1ccc2c3c1OC1[C@@H](OCc4c5ccccc5cc5ccccc45)CCC4(O)C(C2)N(CC2CC2)CCC314` (stereo not given in full) here?
Answer: The IC50 was 36 nM.

Question: Which IC50 does the source give for `Oc1ccc2c3c1OC1[C@H](OCc4ccc(-c5ccccc5)cc4)CCC4(O)C(C2)N(CC2CC2)CCC314` (stereo not given in full) here?
Answer: The IC50 was 11 nM.

Question: Which IC50 does the source give for `Oc1ccc2c3c1OC1[C@H](OCc4c5ccccc5cc5ccccc45)CCC4(O)C(C2)N(CC2CC2)CCC314` (stereo not given in full) here?
Answer: The IC50 was 48 nM.

Question: For `O=C(COC1CCC2(O)C3Cc4ccc(O)c5c4C2(CCN3CC2CC2)C1O5)C1[C@H]2C[C@@H]3C[C@@H](C[C@H]1C3)C2` (stereo partly drawn) [17-(cyclopropylmethyl)-4,5alpha-epoxy-3,14-dihydroxy-6beta-morphinanyl 2-adamantyl-2-oxoethylether], which IC50 is on record?
Answer: Its IC50 is 30 nM.
